For 85 molecules, IC50 results are on record in PubChem BioAssay AID2305 (GlaxoSmithKline (GSK), 2010).

Each structure is given as a SMILES string.

In this assay the test system is P. falciparum 3D7 growth, pLDH absorbance. Kind of assay: blood-stage malaria parasite growth potency – strain 3D7, dose response (AID 2305).
Turning to `COc1cc2nccc(Nc3ccc4c(cnn4Cc4ccccc4F)c3)c2cc1OC`, the IC50 (commonly the concentration that inhibits the measured activity by half) worked out at 400 nM.

Regarding `Cc1cccc(Cl)c1Nc1nnc(-c2cccc(C(=O)NC[C@@H]3CC[C@H]4C[C@@H]3C4(C)C)c2)o1`, the IC50 was 270 nM. The same measure for `COc1ccc(-c2c(-c3ccc(OCc4ccccc4)cc3O)n[nH]c2C(F)(F)F)cc1`: 1170 nM; for `CCCC(=O)c1cnc2c(Oc3cc(Cl)ncn3)cccc2c1Nc1ccccc1C`: 340 nM.

The molecule `Oc1ccc(CCNCCCCCCNCCc2ccc(Cl)c3ccccc23)cc1O` had an IC50 of 720 nM. Molecule `O=C(Nc1ccc(Cl)c(Cl)c1)Nc1ccc2nccc(N3CCN(Cc4ccccc4)CC3)c2c1` registered an IC50 of 160 nM.

On to `CCOc1ccc(C(=O)Nc2nonc2-c2ccc(OC)c(OC)c2)cc1`, for which the IC50 was 870 nM. The same measure for `COc1ccc(S(=O)(=O)NC2CCN(c3cc(C)nc(Nc4cccc(C#N)c4)n3)CC2)cc1`: 950 nM; for `O=C(CN1CCN(S(=O)(=O)C=Cc2ccccc2)CC1)Nc1cc(C(F)(F)F)ccc1Cl`: 780 nM; for `COc1ccc(CCN(C)CCOc2ccc(NC(=O)c3ccc([N+](=O)[O-])c4c(=O)c5ccccc5[nH]c34)cc2)cc1OC`: 930 nM.

Regarding `Cc1c(CNCCN2CCCCC2)c(C(=O)O)c(C)n1Cc1ccc(Cl)cc1`, the IC50 was determined as 420 nM. The molecule `CCOc1cc(Cl)c(C(C)NC(=O)c2ccccc2)cc1OCC` (stereo not given) registered an IC50 of 880 nM.

The molecule `O=C(NC1CCCCC1)c1ccc(O)c(-c2cccc(C(F)(F)F)c2)c1` gave an IC50 of 710 nM. The molecule `CC(C)Oc1cc2c(cc1NS(=O)(=O)c1ccc(-c3ccc(Cl)s3)cc1F)CCN(C)CC2` gave an IC50 of 710 nM. With `Cc1ccccc1NC(=O)C1CSCN1C(=O)OCc1ccccc1` (stereo not given) the figure was 980 nM. In turn, `Cc1cc(C)cc(OCC(O)CN(CCN2CCOCC2)C(=O)Nc2ccc(Br)cc2)c1` (stereo not given) yielded an IC50 of 1030 nM. As to `CCc1c(CCNCCCCCCNCCc2ccc([N+](=O)[O-])cc2)ccc(OC)c1OC`, the IC50 worked out at 730 nM. `O=c1c2ccc(F)cc2sn1-c1ccc(Cl)cc1` yielded an IC50 of 1150 nM. Consider `CCC(=O)N(c1ccccc1)C1CCN(CCCC(NC(=O)Nc2cc(C(F)(F)F)cc(C(F)(F)F)c2)c2ccc(Cl)c(Cl)c2)CC1` (stereo not given), for which the IC50 was found to be 670 nM.

As for `COc1ccc(S(=O)(=O)N2CCCc3ccc(Br)cc32)cc1N1CCN(C(=O)C(Cl)(Cl)Cl)CC1`, the IC50 stood at 810 nM. Consider `O=[N+]([O-])c1cccc(CNC2CCN(Cc3ccc(Cl)c(Cl)c3)CC2)c1`, for which the IC50 is 460 nM. With `CCCCC(CC)CN1C(=O)C(c2ccccc2)(c2ccccc2)N=C1N` (stereo not given) the figure was 190 nM; with `O=C(Nc1ccsc1C(=O)NC1CCCCC1)c1ccc(F)cc1`, 1210 nM; with `COc1cc(CNC[C@@H](O)[C@H](Cc2ccccc2)NC(=O)c2cc(C3CCCC3)cc(N3CCCCS3(=O)=O)c2)cc(OC)c1`, 700 nM. The same measure for `CC1(C)[C@H]2CC[C@]1(C)CN(CC(O)Cn1c3ccccc3c3cc(I)ccc31)C2` (stereo not given in full): 1160 nM; for `COc1ccc(C(=O)O)cc1OCc1ccccc1`: 820 nM; for `CC(C)(CNC(=O)[C@@H]1CCCN(CCOc2ccc(Cl)cc2)C1)c1nc(-c2ccc(Cl)c(O)c2)c(-c2ccncc2)[nH]1`: 880 nM.

`CCN(CC)C(=NCCCCCCN=C(NC(N)=NCc1cccc(Cl)c1)N(CC)CC)NC(N)=NCc1cccc(Cl)c1` gave an IC50 of 210 nM. With `CC(=O)Nc1ccc(C(=O)Nc2cccc(-c3cccc(-c4nc5ccc(F)cc5[nH]4)c3)c2)cn1` the figure was 130 nM.

As for `O=C(O)CNCC(O)c1ccccc1` (stereo not given), the IC50 came out at 180 nM. In turn, `O=C(NCCCN1CCN(c2cccc(Cl)c2)CC1)c1ccc(-c2nc3cc(Cl)c(Cl)cc3[nH]2)c(F)c1` had an IC50 of 830 nM.

On to `N#Cc1ccc(N2CCN(Cc3cccc(-c4ccc(-c5nc6ccccc6[nH]5)cc4)c3)CC2)nc1`, for which the IC50 is 1240 nM. The same measure for `CCOc1cc(C)ccc1N(C1CCN(CCCCNC(=O)c2ccc(-c3ccc(C(F)(F)F)cc3)cc2)CC1)S(=O)(=O)c1ccccc1`: 1020 nM; for `CSc1nnc2n(Cc3ccccc3)c(=O)c3c(n12)-c1ccccc1CC31CCCCC1`: 970 nM.

As for `CCCOc1ccc(-c2nonc2NC(=O)c2ccccc2OC)cc1OCCC`, the IC50 amounted to 860 nM. Molecule `O=C(NCCCCN1CCN(CC=Cc2ccccc2)CC1)c1ccc(NC(=O)c2cc(Cl)cc(Cl)c2)cc1` yielded an IC50 of 210 nM. In turn, `CN(C)CCOc1cc(NC(=O)c2ccc(-c3ccc(Cl)cc3Cl)cc2)ccc1-c1ccccc1` registered an IC50 of 910 nM. The same measure for `CCCCCN1CCC(NS(=O)(=O)c2cccc(C(=O)Nc3cccc(C(F)(F)F)c3)c2)C1` (stereo not given): 830 nM. With `Cc1cccc2[nH]cc(C3CCN(CCC4CCN(C(=O)/C=C/c5ccc(Cl)c(Cl)c5)CC4)CC3)c12` the figure was 1220 nM; with `Cc1cccc2[nH]c(-c3ccc(-c4ccc(CN5CCC(N)C5)cc4)s3)nc12` (stereo not given), 370 nM. The same measure for `CC1(C)CCC(C)(C)c2c1ccc(C1CCN(CCCCNC(=O)c3ccc(-c4ccc(C#N)cc4)cc3)CC1)c2O`: 230 nM.

`O=C(Nc1ccc(CN2CCN(S(=O)(=O)c3cccc(Cl)c3)CC2)cc1)c1cccs1` yielded an IC50 of 1080 nM. As for `Cn1nc(-c2cccc(CNC3CCc4ccccc43)c2)c2cnc(NCCCN3CCCC3)nc21` (stereo not given), the IC50 turned out to be 880 nM. In the case of `COc1ccc(C2CCC(NCCCCNC(=O)c3ccc(NC(=O)c4ccc(Cl)cc4)cc3)CC2)cc1` (stereo not given), the IC50 amounted to 630 nM. `COc1ccc(-c2cc3nc4c(c(NCCCn5ccnc5)n3n2)CCCC4)cc1` registered an IC50 of 730 nM. The same measure for `CCCNCc1ccc(-c2ccc(CN(CCOC)C(=O)c3cccc(C#N)c3)cc2)nc1`: 1230 nM; for `Cc1cnc(NCC2CCCCC2)nc1N[C@@H](CC(C)C)C(=O)Nc1ccccc1`: 870 nM.

Regarding `CN1CC[C@@H](Oc2cc(CNC(=O)c3ccc(-c4ccc(Cl)cc4)s3)ccc2C(F)(F)F)C1`, the IC50 amounted to 1030 nM. The same measure for `c1ccc2[nH]c(-c3ccc(-c4ccc(CN5CCN(CCN6CCOCC6)CC5)cc4)cc3)nc2c1`: 160 nM; for `CC=CC(=O)N1CCN(c2nccc(-c3ccc(C(C)(C)C)cc3)n2)CC1`: 1080 nM. The same measure for `CCC(CO)NCC(O)Cn1c2ccc(Br)cc2c2cc(Br)ccc21` (stereo not given): 780 nM. The same measure for `CCCCCCN1CCC(NCc2ccc(C)cc2)CC1`: 860 nM; for `Cc1cc(NC(=O)Nc2ccc3sccc3c2)c2ccccc2n1`: 530 nM.

Regarding `CC(C)c1ccc(O)cc1Nc1ccnc2ccc(C(F)(F)F)cc12`, the IC50 stood at 680 nM. With `COc1cc(N(Cc2ccccc2C)S(=O)(=O)Cc2ccccc2[N+](=O)[O-])c(OC)cc1Cl` the figure was 1010 nM.

`Cc1ccc(NC(=O)Nc2ccc(Cl)c(C(F)(F)F)c2)cc1-c1ccc(C(=O)NCCN2CCOCC2)cc1` displayed an IC50 of 810 nM. With `NC(=O)c1ccc(NCC(=O)Nc2cccc(-c3cccc(-c4nc5ccccc5[nH]4)c3)c2)cc1` the figure was 990 nM. Molecule `Cc1ccccc1Oc1nc2ccccc2nc1SCC(=O)NC(C)C` had an IC50 of 200 nM. Molecule `c1cc(OCCN2CCCC2)ccc1CNC1CCN(CC2CCCCC2)CC1` registered an IC50 of 840 nM. The same measure for `O=C(N[C@@H](Cc1ccccc1)C(=O)NC1CCCCC1)c1ccc(O)c(-c2cccc(C(F)(F)F)c2)c1`: 810 nM. With `Cc1cc(Nc2ncc(C#N)c(Nc3ccccc3C(N)=O)n2)ccc1N1CCN(C)CC1` the figure was 10 nM; with `CN(C)C(C)(C)CN(Cc1ccc(-c2ccc(C(F)(F)F)cc2)cc1)C(=O)Cn1c(CCc2cccc(F)c2F)nc(=O)c2ccccc21`, 830 nM.

`CC(=O)c1sc(NC(=O)Nc2ccc(C)cc2C)nc1C` had an IC50 of 910 nM.

As to `COc1ccc(CNCC(C)(C)c2nc(-c3ccc(Cl)c(O)c3)c(-c3ccncc3)[nH]2)cc1`, the IC50 was found to be 360 nM. With `COc1cc(NCCCNC(=O)c2ccc(Cl)c(Cl)c2)nc2ccccc12` the figure was 140 nM. The molecule `CN(C)Cc1c(O)ccc2oc(Cc3ccccc3)cc12` gave an IC50 of 910 nM. The same measure for `CCN(c1cc(C)nc(Nc2ccc(Cl)cc2)n1)[C@H]1CCN(Cc2ccccc2)C1`: 860 nM; for `Cn1nc(C(F)(F)F)c(-c2ccc(F)cc2)c1NC(=O)Nc1ccc(F)cc1F`: 760 nM; for `O=C(N[C@@H](Cc1ccccc1)C(=O)NCCN1CCCC1)c1ccc(O)c(-c2ccc(Cl)c(Cl)c2)c1`: 800 nM. With `O=C(NCCCCN1CC=C(c2ccc3c(c2OCC2CC2)CCCC3)CC1)c1ccc(-c2ccc(C(F)(F)F)cc2)cc1` the figure was 540 nM; with `O=C(/C=C/c1ccc(Cl)c(Cl)c1)N1CCC(CN2CCC(c3c[nH]c4ccc(NS(=O)(=O)c5cccs5)cc34)CC2)CC1`, 220 nM; with `CN(C)CCc1c[nH]c2ccc(C(=O)Nc3ccc(-c4ccncc4)cc3)cc12`, 570 nM. The same measure for `Cc1cccc2[nH]c(-c3cccc(-c4ccc(NC(=O)c5cnn6cccnc56)cc4)c3)nc12`: 210 nM.

Molecule `O=C(NC(CCCN1CCC(c2ccccc2)CC1)c1ccc(Cl)c(Cl)c1)c1cc(C(F)(F)F)cc(C(F)(F)F)c1` (stereo not given) displayed an IC50 of 860 nM. Molecule `O=C(Nc1cc(C(F)(F)F)cc(C(F)(F)F)c1)c1cc(C(F)(F)F)cc(C(F)(F)F)c1` showed an IC50 of 870 nM. With `Cc1cn(CC(=O)Nc2cccc(-c3cccc(-c4nc5ccc(C(F)(F)F)cc5[nH]4)c3)c2)c(=O)[nH]c1=O` the figure was 680 nM; with `CCC(CC)OC(=O)C(C)c1cccc(C(=O)c2ccccc2)c1` (stereo not given), 830 nM. With `COc1cc2nc(-c3ccc(Br)cc3)cc(N)c2cc1OC` the figure was 170 nM; with `O=C(CSc1nccn1Cc1ccco1)Nc1cc(C(F)(F)F)ccc1Cl`, 820 nM; with `CC(C)Sc1nc(-c2ccccc2)nc2c1COC(C)(C)C2`, 860 nM.

`N#Cc1ccc(N(CCOC(=O)c2ccc(Br)s2)Cc2ccccc2C(F)(F)F)cc1C(F)(F)F` came in with an IC50 of 1070 nM. With `O=C(Nc1cccc(CN2CCCN(Cc3cccc(O)c3)CC2)c1)c1cc2ccccc2s1`, the half-inhibitory concentration (IC50) was found to be 360 nM. With `O=C(NC1CCC(N2CCN(c3cccc(C(F)(F)F)c3)CC2)CC1)c1cc2ccccc2[nH]1` (stereo not given) the figure was 720 nM. The same measure for `COc1cc(F)c2ncc(Cl)c(C(O)CN3CCC(NC(=O)c4ccc5c(c4)NC(=O)CS5)CC3)c2c1` (stereo not given): 680 nM; for `O=C(NCc1cccc(F)c1)Nc1ccc(-c2cccc(-c3nc4ccc(F)cc4[nH]3)c2)cc1`: 770 nM.
